B1: f-adiponectin: Recombinant human full-length (non-proteolytic) adiponectin, about 30-kDa polypeptide; lot mainly HMW form (protein, UniProt Q15848 1-244, looked up)
chain: MLLLGAVLLLLALPGHDQETTTQGPGVLLPLPKGACTGWMAGIPGHPGHNGAPGRDGRDGTPGEKGEKGDPGLIGPKGDIGETGVPGAEGPRGFPGIQGRKGEPGEGAYVYRSAFSVGLETYVTIPNMPIRFTKIFYNQQNHYDGSTGKFHCNIPGLYYFAYHITVYMKDVKVSLFKKDKAMLFTYDQYQENNVDQASGSVLLHLEVGDQVWLQVYGEGERNGLYADNDNDSTFTGFLLYHDTN
modifications: full-length
notes: Recombinant human full-length (non-proteolytic) adiponectin, about 30-kDa polypeptide; lot mainly HMW form

Assays:
LNCaP-FGC cells [1] = test: [3H] thymidine incorporation assay; assay type: cell-based, human
Method: (§1) DU145 (1.5×10^5/well), PC-3 (1.0×10^5/well) and LNCaP-FGC (2.0×10^5/well) cells were seeded into 24-well plates 24 hours before serum-starvation. Cells were deprived of serum for 48 hours, followed by incubation with leptin at indicated concentrations or 100 ng/ml IL-6 for 20 hours. In some experiments, cells were pretreated with SP600125 prior to cytokine stimulation as described below. Cells in each well were pulsed with 1 μCi of [^3H] thymidine (Amersham Pharmacia Biotech Inc., Piscataway, N.J., USA) during the final 5 hours, washed once with PBS, fixed with cold 5% trichloroacetic acid, solubilized with 0.25 M NaOH, and counted in scintillant. Each experiment was performed in quadruplicate, and the values are reported as mean±SD.

DU145 cells = test: [3H] thymidine incorporation assay; assay type: cell-based, human
Method: as §1
(§2) SP600125 was dissolved in DMSO to make a stock solution. Eighty-percent confluent prostate cancer cells were serum-starved for 24 hours and pretreated with SP600125 at indicated concentrations for 30 minutes, followed by leptin treatment (12.5 μg/ml): 15 minutes for Western blot analysis or 20 hours for thymidine incorporation assays. DMSO-treated cells were employed as controls.

PC-3 cells = test: [3H] thymidine incorporation assay; assay type: cell-based, human
Method: as §1, §2

LNCaP-FGC cells [2] = test: Cell proliferation with leptin and DHT; assay type: cell-based, human; conditions: only in the presence of DHT
STAT3 = test: Electromobility shift assay (EMSA) of STAT3 DNA binding; assay type: cell-based, human
Method: (§3) Seventy-percent confluent cells were deprived of serum for 24 hours, followed by treatment with 1 μg/ml f- or g-adiponectin or 10 μg/ml anisomycin for indicated periods. After being rinsed with cold phosphate-buffered saline, cells were harvested using a scraper and collected by centrifugation at 700×g for 10 minutes at 4° C. The cell pellets were then homogenized in cell lysis buffer (20 mM HEPES, pH 7.9, 300 mM NaCl, 1 mM Na3VO4, 1 μg/ml leupeptin, 5 μg/ml aprotinin, 1 μg/ml pepstatin, and 1 mM phenylmethylsulfonyl fluoride) and rocked gently for 30 minutes at 4° C. The homogenates were centrifuged at 15,000×g for 5 minutes at 4° C., and the supernatants were saved as cell lysates and stored at −80° C. until use.
The EMSA was performed as described previously (Y. Iwamoto, et al., J. Biol. Chem. 273:18198-18204, 1998). Cell lysates containing 10 μg of protein were subjected to the assay with ^32P-end-labeled, double-stranded oligonucleotide M67-SIE (forward: 5′[…]-3′ and reverse: 5′-[…]-3′) as a probe. The supershift assay was carried out to confirm the STAT3-DNA complex using anti-STAT3 antibody.

JNK = test: In vitro JNK assay on lysates of treated C2C12 myoblasts; assay type: cell-based, murine; conditions: 1.0 μg/ml
Method: as §3
Using the stress-activated protein kinase/JNK assay kit, JNK activity was assessed with a fusion protein of the c-Jun NH2 terminus (amino acids 1 to 89) and glutathione S-transferase as a substrate according to the manufacture's instructions with some modifications as reported before (M. Onuma, et al., supra, 2003). […] The substrate fusion protein was separated by SDS-polyacrylamide gel electrophoresis, and its phosphorylation by JNK was determined by Western blot analysis using anti-phospho-c-Jun (Ser-63) polyclonal antibody. To normalize sample variations, JNK protein levels were also determined by Western blot analysis using anti-JNK antibody.

c-Jun = test: Western blot analysis of c-Jun phosphorylation in C2C12 myoblasts; assay type: cell-based, murine; conditions: 1.0 μg/ml
Method: as §3
Cell lysates (100 μg of protein) were electrophoresed on 10% SDS-polyacrylamide gels and transferred to polyvinylidene difluoride membranes. After being washed and blocked, the membranes were hybridized with anti-phospho-c-Jun (Ser-63 or Ser-73) polyclonal antibody that specifically detects phosphorylated c-Jun molecules. The membranes were then stripped and re-hybridized with anti-c-Jun antibody that recognizes both phosphorylated and unphosphorylated c-Jun molecules to normalize sample variations.

Row | Molecule | cell proliferation on co-treatment with leptin and IGF-I (LNCaP-FGC cells [1]; 12.5 μg/ml leptin with 100 ng/ml IGF-I, 20 hours) | effect on the IL-6-induced inhibition of cell proliferation (LNCaP-FGC cells [1]; 12.5 μg/ml leptin with 100 ng/ml IL-6, 20 hours) | [3H] thymidine incorporation (cell proliferation), cytokine alone (LNCaP-FGC cells [1]; serum-deprived, leptin up to 12.5 μg/ml, IL-6 100 ng/ml or IGF-I 100 ng/ml, 20 hours) | [3H] thymidine incorporation (cell proliferation), cytokine alone (DU145 cells; DU145, serum-deprived, leptin up to 12.5 μg/ml, IL-6 100 ng/ml or IGF-I 100 ng/ml, 20 hours) | effect on the IGF-I stimulation of cell proliferation (DU145 cells; DU145, 12.5 μg/ml leptin with 100 ng/ml IGF-I, 20 hours) | effect on the IL-6 stimulation of cell proliferation (DU145 cells; DU145, 12.5 μg/ml leptin with 100 ng/ml IL-6, 20 hours) | [3H] thymidine incorporation (cell proliferation), cytokine alone (PC-3 cells; PC-3, serum-deprived, leptin up to 12.5 μg/ml, IL-6 100 ng/ml or IGF-I 100 ng/ml, 20 hours) | effect on the IGF-I stimulation of cell proliferation (PC-3 cells; PC-3, 12.5 μg/ml leptin with 100 ng/ml IGF-I, 20 hours) | effect on the IL-6 stimulation of cell proliferation (PC-3 cells; PC-3, 12.5 μg/ml leptin with 100 ng/ml IL-6, 20 hours) | cell proliferation, leptin together with androgen (DHT) (LNCaP-FGC cells [2]) | constitutive STAT3 activation (STAT3 DNA binding activity) (STAT3; DU145 and HepG2 cells, 1.0 μg/ml, up to 60 minutes) | STAT3 activation (STAT3; the other cell lines (PC-3, LNCaP-FGC, C2C12), data not shown) | time of peak JNK activation after addition (JNK) | JNK activation (JNK; up to 60 minutes) | c-Jun phosphorylation at Ser-63 (c-Jun) | c-Jun phosphorylation at Ser-73 (c-Jun)
1 | leptin: Recombinant human leptin purchased from R&D Systems; major adipose cytokine | did not influence | did not influence | did not influence | stimulated thymidine incorporation remarkably in a dose-dependent fashion | drastic, synergistic effects | additive effects | stimulated thymidine incorporation remarkably in a dose-dependent fashion | drastic, synergistic effects | additive effects | synergistically stimulate cell proliferation |  |  |  |  |  | 
2 | B1 |  |  |  |  |  |  |  |  |  |  | inhibited constitutive STAT3 activation drastically | Neither f- nor g-adiponectin influenced STAT3 activation | 10 min | further stimulated JNK activation | augmented c-Jun phosphorylation at Ser-63 | stimulated Ser-73 phosphorylation

— patent publication US20060040861A1, “Method of treating, preventing, and diagnosing prostate cancer” (priority 2004, published 2006)
